# Laboratory results from PubChem BioAssay (NCI).
#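 GI50: concentration for 50% inhibition of growth. TGI denotes the concentration required for complete inhibition of growth.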
# Key:
# Test in all cases: DTP human tumour cell line panel, 384-well format
# RXF 393 renal = test system: RXF 393 renal
# COLO 205 colon = test system: COLO 205 colon
# UACC-257 melanoma = test system: UACC-257 melanoma
# SNB-19 CNS = test system: SNB-19 CNS
# SF-295 CNS = test system: SF-295 CNS
# T-47D breast = test system: T-47D breast
# IGROV1 ovarian = test system: IGROV1 ovarian
# ACHN renal = test system: ACHN renal
# MDA-MB-468 breast = test system: MDA-MB-468 breast
# SW-620 colon = test system: SW-620 colon
# PC-3 prostate = test system: PC-3 prostate
# NCI-H522 lung = test system: NCI-H522 lung
# MCF7 breast = test system: MCF7 breast
# OVCAR-4 ovarian = test system: OVCAR-4 ovarian
# NCI-H23 lung = test system: NCI-H23 lung
# A498 renal = test system: A498 renal
# UACC-62 melanoma = test system: UACC-62 melanoma
# U251 glioblastoma = test system: U251 glioblastoma
# MDA-MB-231 breast = test system: MDA-MB-231 breast
# MALME-3M melanoma = test system: MALME-3M melanoma
# TK-10 renal = test system: TK-10 renal
# 786-0 renal = test system: 786-0 renal
# RPMI-8226 leukemia = test system: RPMI-8226 leukemia
# MOLT-4 leukemia = test system: MOLT-4 leukemia
# HS 578T breast = test system: HS 578T breast
# CAKI-1 renal = test system: CAKI-1 renal
# SK-MEL-28 melanoma = test system: SK-MEL-28 melanoma
# KM12 colon = test system: KM12 colon
# SNB-75 CNS = test system: SNB-75 CNS
# LOX IMVI melanoma = test system: LOX IMVI melanoma
# NCI-H460 NSCLC = test system: NCI-H460 NSCLC
# HCT-15 colon = test system: HCT-15 colon
# SF-268 CNS = test system: SF-268 CNS
# HCC-2998 colon = test system: HCC-2998 colon
# SK-MEL-5 melanoma = test system: SK-MEL-5 melanoma
# OVCAR-8 ovarian = test system: OVCAR-8 ovarian
# NCI/ADR-RES ovarian = test system: NCI/ADR-RES ovarian
# NCI-H322M lung = test system: NCI-H322M lung
# HL-60(TB) leukemia = test system: HL-60(TB) leukemia
# SR leukemia = test system: SR leukemia
# HOP-62 NSCLC = test system: HOP-62 NSCLC
# OVCAR-3 ovarian = test system: OVCAR-3 ovarian
# NCI-H226 lung = test system: NCI-H226 lung
# BT-549 breast = test system: BT-549 breast
# HCT-116 colon = test system: HCT-116 colon
# DU-145 prostate = test system: DU-145 prostate
# EKVX NSCLC = test system: EKVX NSCLC
# SN12C renal = test system: SN12C renal
# SK-OV-3 ovarian = test system: SK-OV-3 ovarian
# A549 NSCLC = test system: A549 NSCLC
# MDA-MB-435 melanoma = test system: MDA-MB-435 melanoma
# M14 melanoma = test system: M14 melanoma
# UO-31 renal = test system: UO-31 renal
smiles,measurement,setting,value
Cc1ccc(Nc2nccc(N(C)c3ccc4c(C)n(C)nc4c3)n2)cc1S(N)(=O)=O,GI50,RXF 393 renal,0.485 µM
same,TGI,RXF 393 renal,3.04 µM
same,GI50,COLO 205 colon,14 µM
same,TGI,COLO 205 colon,> 100 µM
same,GI50,UACC-257 melanoma,12 µM
same,TGI,UACC-257 melanoma,62.2 µM
same,GI50,SNB-19 CNS,> 100 µM
same,TGI,SNB-19 CNS,> 100 µM
same,GI50,SF-295 CNS,8.89 µM
same,TGI,SF-295 CNS,> 100 µM
same,GI50,T-47D breast,2.52 µM
same,TGI,T-47D breast,11.4 µM
same,GI50,IGROV1 ovarian,5.68 µM
same,TGI,IGROV1 ovarian,> 100 µM
same,GI50,ACHN renal,6.18 µM
same,TGI,ACHN renal,> 100 µM
same,GI50,MDA-MB-468 breast,2.97 µM
same,TGI,MDA-MB-468 breast,62.9 µM
same,GI50,SW-620 colon,> 100 µM
same,TGI,SW-620 colon,> 100 µM
same,GI50,PC-3 prostate,11.2 µM
same,TGI,PC-3 prostate,70.9 µM
same,GI50,NCI-H522 lung,6.73 µM
same,TGI,NCI-H522 lung,99.3 µM
same,GI50,MCF7 breast,7.41 µM
same,TGI,MCF7 breast,> 100 µM
same,GI50,OVCAR-4 ovarian,9.52 µM
same,TGI,OVCAR-4 ovarian,35.6 µM
same,GI50,NCI-H23 lung,4.79 µM
same,TGI,NCI-H23 lung,69.6 µM
same,GI50,A498 renal,6.05 µM
same,TGI,A498 renal,90.9 µM
same,GI50,UACC-62 melanoma,6.37 µM
same,TGI,UACC-62 melanoma,20.8 µM
same,GI50,U251 glioblastoma,9.87 µM
same,TGI,U251 glioblastoma,> 100 µM
same,GI50,MDA-MB-231 breast,5.54 µM
same,TGI,MDA-MB-231 breast,> 100 µM
same,GI50,MALME-3M melanoma,2.73 µM
same,TGI,MALME-3M melanoma,> 100 µM
same,GI50,TK-10 renal,31.6 µM
same,TGI,TK-10 renal,> 100 µM
same,GI50,786-0 renal,4.16 µM
same,TGI,786-0 renal,> 100 µM
same,GI50,RPMI-8226 leukemia,3.57 µM
same,TGI,RPMI-8226 leukemia,11.5 µM
same,GI50,MOLT-4 leukemia,2.36 µM
same,TGI,MOLT-4 leukemia,6.45 µM
same,GI50,HS 578T breast,2.3 µM
same,TGI,HS 578T breast,7.68 µM
same,GI50,CAKI-1 renal,3.78 µM
same,TGI,CAKI-1 renal,> 100 µM
same,GI50,SK-MEL-28 melanoma,55.2 µM
same,TGI,SK-MEL-28 melanoma,> 100 µM
same,GI50,KM12 colon,7 µM
same,TGI,KM12 colon,> 100 µM
same,GI50,SNB-75 CNS,2.51 µM
same,TGI,SNB-75 CNS,29 µM
same,GI50,LOX IMVI melanoma,3.62 µM
same,TGI,LOX IMVI melanoma,40.4 µM
same,GI50,NCI-H460 NSCLC,5.27 µM
same,TGI,NCI-H460 NSCLC,> 100 µM
same,GI50,HCT-15 colon,4.4 µM
same,TGI,HCT-15 colon,37.8 µM
same,GI50,SF-268 CNS,12.6 µM
same,TGI,SF-268 CNS,> 100 µM
same,GI50,HCC-2998 colon,> 100 µM
same,TGI,HCC-2998 colon,> 100 µM
same,GI50,SK-MEL-5 melanoma,3.03 µM
same,TGI,SK-MEL-5 melanoma,10.7 µM
same,GI50,OVCAR-8 ovarian,8.01 µM
same,TGI,OVCAR-8 ovarian,61.3 µM
same,GI50,NCI/ADR-RES ovarian,30.5 µM
same,TGI,NCI/ADR-RES ovarian,93.6 µM
same,GI50,NCI-H322M lung,7.64 µM
same,TGI,NCI-H322M lung,45.5 µM
same,GI50,HL-60(TB) leukemia,7.4 µM
same,TGI,HL-60(TB) leukemia,18.3 µM
same,GI50,SR leukemia,6.38 µM
same,TGI,SR leukemia,12.1 µM
same,GI50,HOP-62 NSCLC,6.28 µM
same,TGI,HOP-62 NSCLC,34.5 µM
same,GI50,OVCAR-3 ovarian,22.6 µM
same,TGI,OVCAR-3 ovarian,> 100 µM
same,GI50,NCI-H226 lung,1.99 µM
same,TGI,NCI-H226 lung,13.3 µM
same,GI50,BT-549 breast,1.61 µM
same,TGI,BT-549 breast,16.6 µM
same,GI50,HCT-116 colon,5.38 µM
same,TGI,HCT-116 colon,> 100 µM
same,GI50,DU-145 prostate,9.34 µM
same,TGI,DU-145 prostate,> 100 µM
same,GI50,EKVX NSCLC,14.3 µM
same,TGI,EKVX NSCLC,> 100 µM
same,GI50,SN12C renal,7.86 µM
same,TGI,SN12C renal,> 100 µM
same,GI50,SK-OV-3 ovarian,6.47 µM
same,TGI,SK-OV-3 ovarian,> 100 µM
same,GI50,A549 NSCLC,4.55 µM
same,TGI,A549 NSCLC,> 100 µM
same,GI50,MDA-MB-435 melanoma,78.6 µM
same,TGI,MDA-MB-435 melanoma,> 100 µM
same,GI50,M14 melanoma,8.19 µM
same,TGI,M14 melanoma,52.9 µM
same,GI50,UO-31 renal,8.29 µM
same,TGI,UO-31 renal,> 100 µM
